Source: the NIST ThermoML archive (doi:10.1021/acs.jced.7b00092)

Conditions: Liquid, Frequency=8 MHz, Pulse-echo method

C[Si](C)(C)O[Si](C)(C)O[Si](C)(C)C [octamethyltrisiloxane]
Conditions | speed of sound [m/s]
299.61 K, 10196 kPa | 986.47
299.62 K, 101 kPa | 911.32
299.63 K, 502 kPa | 914.41
299.64 K, 984 kPa | 918.29
299.64 K, 1480 kPa | 922.14
299.65 K, 2012 kPa | 926.38
299.66 K, 3441 kPa | 937.36
299.68 K, 20155 kPa | 1050.3
299.69 K, 5923 kPa | 955.8
299.71 K, 30179 kPa | 1107.3
349.58 K, 3704 kPa | 781
349.59 K, 2066 kPa | 764.64
349.59 K, 10127 kPa | 839.26
349.6 K, 1556 kPa | 759.34
349.61 K, 6067 kPa | 803.25
349.61 K, 20075 kPa | 915.62
349.64 K, 29800 kPa | 980.01
349.65 K, 1075 kPa | 754.2
349.69 K, 558 kPa | 748.58
349.91 K, 111 kPa | 742.97
399.42 K, 29701 kPa | 873.39
399.95 K, 2018 kPa | 610.77
399.96 K, 508 kPa | 588.68
399.96 K, 993 kPa | 595.83
399.96 K, 1439 kPa | 602.33
399.96 K, 3510 kPa | 630.8
400.02 K, 9928 kPa | 704.99
400.15 K, 19875 kPa | 796.17
449.44 K, 23518 kPa | 734.5
449.96 K, 1045 kPa | 448.89
449.98 K, 1523 kPa | 458.69
449.99 K, 492 kPa | 436.7
450.01 K, 1994 kPa | 468.09
450.05 K, 3497 kPa | 495.73
450.09 K, 6009 kPa | 536.6
450.14 K, 9983 kPa | 591.45
450.22 K, 20246 kPa | 701.94
498.94 K, 3487 kPa | 373.05
498.96 K, 1989 kPa | 328.83
499 K, 5834 kPa | 424.21
499.02 K, 1521 kPa | 313.47
499.02 K, 10178 kPa | 498.23
499.04 K, 1000 kPa | 292.6
499.05 K, 16859 kPa | 585.07
549.67 K, 15312 kPa | 492.6
549.74 K, 6653 kPa | 340.31
549.79 K, 4484 kPa | 279.71
549.8 K, 10050 kPa | 411.61
549.84 K, 12528 kPa | 452.26

C[Si](C)(C)O[Si](C)(C)O[Si](C)(C)O[Si](C)(C)C [decamethyltetrasiloxane]
Conditions | speed of sound [m/s]
217.81 K, 2 kPa | 1232
217.81 K, 1324 kPa | 1238.8
217.85 K, 9419 kPa | 1278.4
217.9 K, 19699 kPa | 1325.2
217.99 K, 40255 kPa | 1409.2
218.01 K, 60115 kPa | 1481.3
218.09 K, 79712 kPa | 1545.9
218.16 K, 98572 kPa | 1603
218.24 K, 118233 kPa | 1658.4
249.42 K, 119047 kPa | 1575.5
249.53 K, 98950 kPa | 1515.2
249.65 K, 80370 kPa | 1454.9
249.74 K, 59554 kPa | 1380.8
249.8 K, 19343 kPa | 1208.7
249.8 K, 39384 kPa | 1300.3
249.84 K, 1077 kPa | 1110.1
249.84 K, 9240 kPa | 1156.2
299.9 K, 16 kPa | 925.67
299.92 K, 1080 kPa | 933.63
299.94 K, 121 kPa | 926.31
299.96 K, 958 kPa | 932.76
299.98 K, 9659 kPa | 994.25
300 K, 19671 kPa | 1056.3
300 K, 60024 kPa | 1252.4
300 K, 80266 kPa | 1331.2
300 K, 99198 kPa | 1397.7
300.01 K, 40202 kPa | 1164.3
300.04 K, 119626 kPa | 1463.1
349.87 K, 59744 kPa | 1145.5
349.89 K, 9447 kPa | 851.51
349.89 K, 99170 kPa | 1302.5
349.89 K, 119296 kPa | 1370.8
349.9 K, 19447 kPa | 925.37
349.92 K, 80462 kPa | 1232.5
349.93 K, 1369 kPa | 780.56
349.93 K, 40092 kPa | 1049.2
399.55 K, 120290 kPa | 1300.1
399.6 K, 1077 kPa | 636.31
399.6 K, 9691 kPa | 731.33
399.67 K, 1234 kPa | 638.18
399.67 K, 20055 kPa | 820.52
399.69 K, 38533 kPa | 945.04
399.69 K, 60934 kPa | 1064.3
399.7 K, 81120 kPa | 1154.3
399.7 K, 99014 kPa | 1224.6
449.89 K, 9702 kPa | 623.33
449.92 K, 19667 kPa | 723.35
449.96 K, 40506 kPa | 876.94
449.99 K, 59941 kPa | 986.94
450.01 K, 80184 kPa | 1082.5
450.03 K, 99670 kPa | 1162.7
450.04 K, 119488 kPa | 1235.4
450.05 K, 1060 kPa | 502.02
499.61 K, 9979 kPa | 534.61
499.67 K, 20291 kPa | 650.54
499.69 K, 40057 kPa | 807.98
499.72 K, 4164 kPa | 442.17
499.72 K, 60022 kPa | 927.39
499.75 K, 5168 kPa | 460.32
499.75 K, 80169 kPa | 1026.5
499.76 K, 1001 kPa | 371.6
499.78 K, 3058 kPa | 420.07
499.8 K, 99589 kPa | 1109
499.82 K, 1926 kPa | 395
499.89 K, 119374 kPa | 1183.6
